Read-outs that look alike come from different tables or passages of the source.
Legend:
MATE1 = biological target: T1, MATE1 (Homo sapiens, UniProt Q96FL8); assay: Uptake ratio in MATE1-overexpressing HEK293 cells vs empty vector (2.5 μM, 1 min, HPLC-MS/MS); type: cell-based
T1 sequence (Q96FL8 1-570): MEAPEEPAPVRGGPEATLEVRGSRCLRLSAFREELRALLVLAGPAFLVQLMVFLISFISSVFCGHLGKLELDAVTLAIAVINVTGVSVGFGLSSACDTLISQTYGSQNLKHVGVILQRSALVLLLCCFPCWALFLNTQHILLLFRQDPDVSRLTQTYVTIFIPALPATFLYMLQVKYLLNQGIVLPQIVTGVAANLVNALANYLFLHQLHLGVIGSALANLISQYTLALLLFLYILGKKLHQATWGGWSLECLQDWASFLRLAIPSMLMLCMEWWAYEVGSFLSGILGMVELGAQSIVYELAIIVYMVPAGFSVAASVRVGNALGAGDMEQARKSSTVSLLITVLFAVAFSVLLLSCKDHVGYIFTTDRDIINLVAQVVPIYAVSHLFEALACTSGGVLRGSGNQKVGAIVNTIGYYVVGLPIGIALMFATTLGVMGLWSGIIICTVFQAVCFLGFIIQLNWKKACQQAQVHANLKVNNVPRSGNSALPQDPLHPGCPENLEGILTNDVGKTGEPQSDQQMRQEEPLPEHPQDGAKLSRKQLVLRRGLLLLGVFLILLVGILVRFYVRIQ

MATE2K = MATE2K (Homo sapiens, UniProt Q86VL8); assay: Uptake ratio in MATE2K-overexpressing HEK293 cells vs empty vector (2.5 μM, 1 min, HPLC-MS/MS); type: cell-based
MATE2K, sequence (Q86VL8 1-566 isoform Q86VL8-3): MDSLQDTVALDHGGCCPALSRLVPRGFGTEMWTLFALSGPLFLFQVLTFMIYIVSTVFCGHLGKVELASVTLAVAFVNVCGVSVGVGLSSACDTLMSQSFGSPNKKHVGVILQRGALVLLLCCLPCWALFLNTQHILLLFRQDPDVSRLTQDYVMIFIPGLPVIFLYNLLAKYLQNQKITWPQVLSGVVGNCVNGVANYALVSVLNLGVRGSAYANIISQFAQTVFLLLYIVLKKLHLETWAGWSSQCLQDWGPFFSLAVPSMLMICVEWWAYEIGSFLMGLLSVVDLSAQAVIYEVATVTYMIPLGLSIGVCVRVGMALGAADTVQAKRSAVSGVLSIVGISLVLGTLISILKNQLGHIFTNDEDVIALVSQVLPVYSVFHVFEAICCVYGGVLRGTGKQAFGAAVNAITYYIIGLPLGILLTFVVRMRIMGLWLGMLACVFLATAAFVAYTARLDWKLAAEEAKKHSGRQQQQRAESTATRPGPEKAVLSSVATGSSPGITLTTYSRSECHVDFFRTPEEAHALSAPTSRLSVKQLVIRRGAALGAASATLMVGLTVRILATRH

[1] = fold uptake over empty vector, 2.5 μM, 1 min
[2] = uptake ratio MATE1-overexpressing vs empty-vector HEK293 cells, 2.5 μM, 1 min, mean
[3] = mean ratio of uptake in MATE1-overexpressing HEK293 cells vs empty vector, 2.5 μM, 1 min
[4] = mean ratio of uptake in MATE2K-overexpressing HEK293 cells vs empty vector, 2.5 μM, 1 min
[5] = uptake ratio MATE2K-overexpressing vs empty-vector HEK293 cells, 2.5 μM, 1 min, mean

Compound	MATE1 ratio (MATE1; [1])	MATE1 (uptake ratio) (MATE1; [3])	MATE2K ratio (MATE2K; [1])	MATE2 (uptake ratio) (MATE2K; [4])	further results
COc1ccc([C@@H](CN(C)C)C2(O)CCCCC2)cc1 [Venlafaxine (S)]	–	–	–	–	MATE1 (MATE1): 1.22; MATE2 (MATE2K): 1.44
NCCc1cc(O)c(O)cc1O [6-Hydroxydopamine]	–	–	–	–	MATE1 (uptake ratio) (MATE1): 1.05; MATE1 ratio (MATE1): 1.05; MATE2 (uptake ratio) (MATE2K): 1.24; MATE2K ratio (MATE2K): 1.24
CC(N)[C@H](O)c1ccc(O)c(O)c1 (stereo partly drawn) [Alpha-methylnorepinephrine (-), Alpha-methylnorepinephrine]	–	–	–	–	MATE1 (uptake ratio) (MATE1): 1.85; MATE1 ratio (MATE1): 1.85; MATE2 (uptake ratio) (MATE2K): 0.72; MATE2K ratio (MATE2K): 0.72
NCCc1c[nH]c2ccc(O)cc12 [Serotonin]	12.11	–	–	–	MATE1 (MATE1; [2]): 12.11; MATE2 (MATE2K): 2.26; MATE2K ratio (MATE2K): 2.26
CC(C)C[C@H](NC(=O)[C@H](Cc1ccccc1)NC(=O)c1cnccn1)B(O)O [Bortezomib]	1.20	1.2	1.10	1.1	–
NCC(O)c1cccc(O)c1 (stereo not drawn) [Norphenylephrine]	26.13	–	1.22	–	–
Nc1ccc2[nH]ncc2c1 [5-Aminoindazole]	0.99	0.99	0.73	0.73	–
Cc1ncc(C[n+]2csc(CCOP(=O)(O)O)c2C)c(N)n1 [Thiamine monophosphate]	–	–	–	–	MATE1 (MATE1; [2]): 1.05; MATE2 (MATE2K; [5]): 0.89
CNC[C@H](O)c1cccc(O)c1 [Phenylephrine (L), Phenylephrine]	18.71	–	2.15	–	–
CC(C[N+](C)(C)C)OC(N)=O (stereo not drawn) [Bethanechol]	0.23	0.23	0.97	0.97	–
NCCc1ccccc1 [2-Phenylethylamine]	1.39	1.39	1.43	1.43	–
CC1(C)OC[C@@H](COC(=O)CCc2ccc(OC[C@@H](O)CNCCNC(=O)N3CCOCC3)cc2)O1 [Landiolol]	3.68	–	2.87	–	–
NCCC(=O)N[C@@H](Cc1cnc[nH]1)C(=O)O [Carnosine]	0.18	0.18	1.03	1.03	–
CN1C(=O)CC[C@H]1c1cccnc1 [Cotinine]	1.11	–	1.20	–	–
OC(CCN1CCCCC1)(c1ccccc1)c1ccccc1 [Pridinol]	1.18	–	1.27	–	–
CN1CCN(CC(=O)N2c3ccccc3C(=O)Nc3cccnc32)CC1 [Pirenzepine]	2.80	–	1.36	–	–
CNCCc1ccccc1 [N-Methyl-2-phenylethylamine]	1.27	–	1.50	–	–
N[C@@H](Cc1c[nH]c2ccccc12)C(=O)O [Tryptophan]	–	–	–	–	MATE1 (MATE1): 0.82; MATE2 (MATE2K): 1.07
CCCCC[C@H](O)/C=C/[C@@H]1[C@@H](C/C=C\CCCC(=O)O)[C@@H](O)C[C@H]1O [Prostaglandin F2alpha]	1.41	–	0.92	–	MATE1 (MATE1; [2]): 1.41; MATE2 (MATE2K; [5]): 0.92
CCN(CC)C(=O)Nc1ccc(OCC(O)CNC(C)(C)C)c(C(C)=O)c1 (stereo not drawn) [Celiprolol]	11.01	11.01	8.76	8.76	–
C[N+]1(C)CCCC(OC(=O)C(O)(c2ccccc2)c2ccccc2)C1.[Br-] (stereo not drawn) [Mepenzolate]	23.89	–	1.72	–	–
CCCCNc1cc(C(=O)O)cc(S(N)(=O)=O)c1Oc1ccccc1 [Bumetanide]	2.02	2.02	1.18	1.18	substrate of MATE1 (MATE1; organic anions tested): substrates of MATE1
NCCc1c[nH]c2c(O)cc(O)cc12 [5,7-Dihydroxytryptamine]	–	–	–	–	MATE1 (uptake ratio) (MATE1): 1.13; MATE1 ratio (MATE1): 1.13; MATE2 (uptake ratio) (MATE2K): 0.84; MATE2K ratio (MATE2K): 0.84
COc1ccc(-n2nc(C(N)=O)c3c2C(=O)N(c2ccc(N4CCCCC4=O)cc2)CC3)cc1 [Apixaban]	1.24	1.24	1.15	1.15	–

— PMC12207590, “Substrate Specificity of the Organic Cation Transporters MATE1 and MATE2K and Functional Overlap with OCT1 and OCT2” (Journal of Medicinal Chemistry, 2025)
